In one assay the target is T1, oxytocin receptors (Rattus norvegicus, UniProt P70536).
T1 construct: The uteri are dissected out, cleaned of fat and connective tissues; from tissue; host or cells: uterus membranes of DES-treated female Sprague-Dawley rats
T1 sequence (P70536 1-388): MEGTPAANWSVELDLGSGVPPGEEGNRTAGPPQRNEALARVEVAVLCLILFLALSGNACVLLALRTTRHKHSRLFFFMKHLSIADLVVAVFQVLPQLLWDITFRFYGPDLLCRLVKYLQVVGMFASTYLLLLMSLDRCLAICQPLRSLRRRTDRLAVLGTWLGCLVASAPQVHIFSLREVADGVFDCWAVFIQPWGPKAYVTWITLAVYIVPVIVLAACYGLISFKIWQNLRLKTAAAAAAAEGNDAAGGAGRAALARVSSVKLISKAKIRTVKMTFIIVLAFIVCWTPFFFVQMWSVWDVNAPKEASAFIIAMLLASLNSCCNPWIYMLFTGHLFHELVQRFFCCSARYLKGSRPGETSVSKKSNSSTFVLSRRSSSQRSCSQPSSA
Briefly: Oxytocin Receptor Binding. Details: species or system Sprague-Dawley rats. The note with it: for IC50: 1.0 nM [3H]oxytocin. The method in brief: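 Membranes from uteri of DES-primed (0.3 mg/kg i.m., 18 h) female Sprague-Dawley rats incubated 60 min at 22 °C with 1.0 nM [3H]oxytocin in 50 mM Tris.HCl pH 7.4, 5 mM MgCl2 plus protease inhibitors; nonspecific binding with 1.0 uM oxytocin. IC50 from displacement after filtration.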

A further assay relates to Vasopressin V1. Briefly: Vasopressin V1 Antagonist Activity in Conscious Rats (vasopressin vasopressor response). The class given is in vivo, rat. The note with it: for inhibition in vivo at 30 mg/kg / inhibition in vivo at 10 mg/kg / inhibition in vivo at 20 mg/kg: Rattus norvegicus, read-out: Vasopressin vasopressor response, Max. % Inhibition. On the procedure:
Vasopressin V1 Antagonist Activity in Conscious Rats Conscious rats are restrained in a supine position with elastic tape. The area at the base of the tail is locally anesthetization by subcutaneous infiltration with 2% procaine (0.2 ml). Using aseptic technique the ventral caudal tail artery is isolated and a cannula made of PE 10 and 20 (heat-fused) tubing is passed into the lower abdominal aorta. The cannula is secured, heparinized (1000 i.u./cc), sealed and the would closed with one or two stitches of Dexon 4-0. The caudal vein is also cannulated in the same manner for intravenous drug administration. The duration of the surgery is approximately 5 minutes. Additional local anesthesia (2% procaine or lidocaine) is provided as needed. The animals are placed in plastic restraining cages in an upright position. The cannula is attached to a […] pressure transducer and pulsatile blood pressure is recorded. […] Percentage of antagonism by the compound is calculated using the pre-drug vasopressin vasopressor response as 100%.

Like-named read-outs stand apart in the source and are kept apart here.

A word on the IC50: it is the concentration that inhibits the measured activity by half. A low value points to higher potency. By inhibition is commonly meant the relative decrease from the control value, in per cent. Higher therefore signals a response far below the control.

At oxytocin receptors, `O=C(Nc1ccc(C(=O)N2CCCCc3sccc32)cc1)c1cc(Cl)ccc1Cl` [Example 9, N-[4-[(5,6,7,8-Tetrahydro-4H-thieno[3,2-b]azepin-4-yl)carbonyl]phenyl]2,5-dichlorobenzamide] registered an IC50 of 5.2 µM and an inhibition at 10 µM of 60%. Also, in the assay with Vasopressin V1 (30 mg/kg po), the “Time (Min) of Max. % Inhibition” value is 180 min and the inhibition in vivo at 30 mg/kg is 17%.

On oxytocin receptors, `Cc1ccccc1CC(=O)Nc1ccc(C(=O)N2CCCCc3sccc32)cc1` [Example 13, N-[4-[(5,6,7,8-Tetrahydro-4H-thieno[3,2-b]azepin-4-yl)carbonyl]phenyl]2-methylbenzeneacetamide] displayed an IC50 of 0.68 µM and an inhibition at 10 µM of 95%. In the assay on Vasopressin V1 (10 mg/kg iv), the “Time (Min) of Max. % Inhibition” value was 60 min and the inhibition in vivo at 10 mg/kg amounted to 80%.

On oxytocin receptors, `O=C(Nc1ccc(C(=O)N2CCCCc3sccc32)c(Cl)c1)c1ccc(Cl)cc1Cl` [Example 68, N-[4-[(5,6,7,8-Tetrahydro-4H-thieno[3,2-b]azepin-4-yl)carbonyl]-3-chlorophenyl]-2,4-dichlorobenzamide] showed an inhibition at 10 µM of 55%. Besides, in the assay with Vasopressin V1 (20 mg/kg iv), the “Time (Min) of Max. % Inhibition” value worked out at 120 min and the inhibition in vivo at 20 mg/kg was 50%.

`Cc1ccc(F)cc1C(=O)Nc1ccc(C(=O)N2CCCCc3sccc32)c(Cl)c1` [Example 70, N-[4-[(5,6,7,8-Tetrahydro-4H-thieno[3,2-b]azepin-4-yl)carbonyl]-3-chlorophenyl]-5-fluoro-2-methylbenzamide]: on oxytocin receptors, the IC50 came to 0.51 µM and the inhibition at 10 µM turned out to be 97%. In the assay with Vasopressin V1 (20 mg/kg iv), the “Time (Min) of Max. % Inhibition” value worked out at 120 min and the inhibition in vivo at 20 mg/kg stood at 67%.

As to `O=C(Nc1ccc(C(=O)N2CCCCc3sc(Cl)cc32)cc1)c1ccc(Cl)cc1Cl` [Example 93, 2,4-Dichloro-N-[4-[(2-chloro-5,6,7,8-tetrahydro-4H-thieno[3,2-b]azepin-4-yl)carbonyl]phenyl]benzamide], at oxytocin receptors, the 50% inhibitory concentration (IC50) was 1.8 µM and the inhibition at 10 µM came out at 83%. Further, in the assay on Vasopressin V1 (20 mg/kg iv), the “Time (Min) of Max. % Inhibition” value was determined as 90 min and the inhibition in vivo at 20 mg/kg was determined as 77%.

On oxytocin receptors, `Cc1c(F)cccc1C(=O)Nc1ccc(C(=O)N2CCCCc3sc(Cl)cc32)cc1` [Example 94, N-[4-[(2-Chloro-5,6,7,8-tetrahydro-4H-thieno[3,2-b]azepin-4-yl)carbonyl]phenyl]-3-fluoro-2-methylbenzamide] registered a 50% inhibitory concentration (IC50) of 0.95 µM and an inhibition at 10 µM of 97%. For the same compound, in the assay with Vasopressin V1 (20 mg/kg iv), the “Time (Min) of Max. % Inhibition” value amounted to 90 min and the inhibition in vivo at 20 mg/kg worked out at 74%.

On oxytocin receptors, `O=C(Nc1ccc(C(=O)N2CCCCc3sc(Cl)cc32)cc1)c1c(Cl)cccc1Cl` [Example 95, N-[4-[(2-Chloro-5,6,7,8-tetrahydro-4H-thieno[3,2-b]azepin-4-yl)carbonyl]phenyl]-2,6-dichlorobenzamide] had a concentration for half-maximal inhibition (IC50) of 1.38 µM and an inhibition at 10 µM of 85%. Also, in the assay with Vasopressin V1 (10 mg/kg iv), the “Time (Min) of Max. % Inhibition” value is 30 min and the inhibition in vivo at 10 mg/kg was found to be 61%.

`Cc1ccccc1C(=O)Nc1ccc(C(=O)N2CCCCc3sc(Cl)cc32)cc1` [Example 96, N-[4-[(2-Chloro-5,6,7,8-tetrahydro-4H-thieno[3,2-b]azepin-4-yl)carbonyl]phenyl]-2-methylbenzamide] came in with a half-inhibitory concentration (IC50) at oxytocin receptors of 0.27 µM. This compound also showed an inhibition at 1.25 µM on oxytocin receptors (1.25 μM) of 58%. Also, in the assay with Vasopressin V1 (10 mg/kg iv), the “Time (Min) of Max. % Inhibition” value is 90 min and the inhibition in vivo at 10 mg/kg came out at 65%.

`Cc1c(F)cccc1C(=O)Nc1ccc(C(=O)N2CCCC(=O)c3sccc32)cc1` [Example 155, N-[4-[(5,6,7,8-Tetrahydro-8-oxo-4H-thieno[3,2-b]azepine-4-yl)carbonyl]phenyl]-3-fluoro-2-methylbenzamide] returned an inhibition at 10 µM on oxytocin receptors of 16%. In the assay with Vasopressin V1 (20 mg/kg iv), the “Time (Min) of Max. % Inhibition” value came out at 60 min and the inhibition in vivo at 20 mg/kg was 62%.

Turning to `O=C(Nc1ccc(C(=O)N2CCCC(=O)c3sccc32)cc1)c1ccc(Cl)cc1Cl` [Example 156, N-[4-[(5,6,7,8-Tetrahydro-8-oxo-4H-thieno[3,2-b]azepin-4-yl)carbonyl]-phenyl]-2,4-dichlorobenzamide], testing at 10 µM on oxytocin receptors gave an inhibition of 0%. Moreover, in the assay with Vasopressin V1 (20 mg/kg iv), the “Time (Min) of Max. % Inhibition” value came out at 240 min and the inhibition in vivo at 20 mg/kg turned out to be 63%.

For the compound `Cc1ccccc1C(=O)Nc1ccc(C(=O)N2CCCC(=O)c3sccc32)cc1` [Example 157, N-[4-[(5,6,7,8-Tetrahydro-8-oxo-4H-thieno[3,2-b]azepin-4-yl)carbonyl]-phenyl]-2-methylbenzamide], at oxytocin receptors, at 10 µM the inhibition was 29%. For the same compound, in the assay on Vasopressin V1 (20 mg/kg iv), the “Time (Min) of Max. % Inhibition” value was 60 min and the inhibition in vivo at 20 mg/kg was 66%.

On oxytocin receptors, `O=C(Nc1ccc(C(=O)N2CCCCc3sccc32)c(Cl)c1)c1ccc(F)cc1Cl` [Example 183] gave a concentration for half-maximal inhibition (IC50) of 0.6 µM and an inhibition at 10 µM of 86%. For the same compound, in the assay with Vasopressin V1 (30 mg/kg iv), the “Time (Min) of Max. % Inhibition” value came to 120 min and the inhibition in vivo at 30 mg/kg worked out at 78%.

For the origin of these results see patent US5696112A, “Fused heterocyclic azepines as vasopressin antagonists” (American Cyanamid Company, priority 1995, dated 1997).
